From ChEMBL document CHEMBL4483862, “Open-source discovery of chemical leads for next-generation chemoprotective antimalarials” (2018)

Tested on: Plasmodium berghei
Assay: Luciferase/luciferin-expressing antifolate-resistant parasites were used to infect a culture of HepG2 cells that were pre-incubated with compounds. Infected hepatocytes emit light due to the luciferase reaction. Assay results are presented as the percent inhibition of light emission compared to control. […]
Format: functional
Settings: sporozoite; for IC90: read-out: LUCIFERASE INFECTION ASSAY - IC90
[1] = read-out: LUCIFERASE INFECTION ASSAY - IC50

Row | Structure (SMILES) | IC50 [1] | IC90 | further results
1 | O=C1c2ccccc2O[C@@H](c2ccccc2)[C@H]1O | > 13.7 µM | > 13.7 µM | 
2 | COc1cc(C)ccc1Oc1ccc(NC(=O)NC2CCN3CCCCC23)cn1 (centres undefined) | > 10 µM | > 10 µM | 
3 | CCOC(=O)c1sc(N(Cc2ccccc2)C(=O)CCc2cc(OC)c(OC)c(OC)c2)nc1C |  | 4.11 µM | IC50 (PBLUC_HILL_SLOPE 16, PBLUC_R_SQUARED 0.382, read-out: LUCIFERASE INFECTION ASSAY - IC50): 3.58 µM
4 | Cn1c(=O)oc2ccc(S(=O)(=O)Nc3ccc4c(c3)CCCC4)cc21 | > 9.21 µM | > 9.21 µM | 
5 | COc1ccc(-n2c(C)cc(/C=C(\C#N)C(=O)OCC(=O)Nc3ccc(Cl)c(C(F)(F)F)c3)c2C)cc1 | > 10 µM | > 10 µM | 
6 | Cc1ccc(C(=O)CN2C(=O)C(=O)N(C)C2=O)cc1C | > 10 µM | > 10 µM | 
7 | Cc1onc(-c2ccccc2)c1-c1csc(Nc2cc(C(F)(F)F)cc(C(F)(F)F)c2)n1 |  | 3.88 µM | IC50 (FFLUC_HILL_SLOPE 38.4, FFLUC_R_SQUARED 0.44, HEPG2TOX_HILL_SLOPE 9.25, HEPG2TOX_R_SQUARED 0.968, PBLUC_HILL_SLOPE 81.8, PBLUC_R_SQUARED 0.627, read-out: LUCIFERASE INFECTION ASSAY - IC50): 3.78 µM
8 | CC(Oc1ccc(-c2ccc(C#N)cc2)cc1)C(=O)C12CC3CC(CC(C3)C1)C2 (centres undefined) |  | > 10 µM | IC50 (PBLUC_HILL_SLOPE 2.77, PBLUC_R_SQUARED 0.53, read-out: LUCIFERASE INFECTION ASSAY - IC50): 5.65 µM
9 | O=C1C=CC(=O)N1c1ccc(C2CCCCC2)cc1 |  | 11.3 µM | IC50 (HEPG2TOX_HILL_SLOPE 18, HEPG2TOX_R_SQUARED 0.917, PBLUC_HILL_SLOPE 2, PBLUC_R_SQUARED 0.694, read-out: LUCIFERASE INFECTION ASSAY - IC50): 3.78 µM
10 | C=CCNS(=O)(=O)c1ccc(C(=O)NCc2ccccc2OC(F)F)cc1 | > 10 µM | > 10 µM | 
11 | COc1cc(OC)cc(-c2cnc3cnc(-c4ccc(CO)cc4)cn23)c1 |  | > 9.13 µM | IC50 (HEPG2TOX_HILL_SLOPE 5.84, HEPG2TOX_R_SQUARED 0.257, PBLUC_HILL_SLOPE 9, PBLUC_R_SQUARED 0.405, read-out: LUCIFERASE INFECTION ASSAY - IC50): 7.72 µM
12 | Cc1ccc(NNC(=O)c2cc3ccccc3o2)cc1Cl |  | > 10 µM | IC50 (PBLUC_HILL_SLOPE 2.35, PBLUC_R_SQUARED 0.383, read-out: LUCIFERASE INFECTION ASSAY - IC50): 6.24 µM
13 | Cc1nc(C(F)(F)F)nc(NCc2ccc(Cl)cc2)c1C |  | > 10.5 µM | IC50 (PBLUC_HILL_SLOPE 1.61, PBLUC_R_SQUARED 0.626, read-out: LUCIFERASE INFECTION ASSAY - IC50): 3.42 µM
14 | Cc1ccsc1CN(C)Cc1nnc(C(=O)Nc2ccc(Cl)cc2)s1 | > 10 µM | > 10 µM | 
15 | CN(C)c1ccc(-c2cc3c(cn2)nc(Nc2ccccc2)n3C)cc1 |  | 4.23 µM | IC50 (HEPG2TOX_HILL_SLOPE 15.7, HEPG2TOX_R_SQUARED 0.892, PBLUC_HILL_SLOPE 14.7, PBLUC_R_SQUARED 0.425, read-out: LUCIFERASE INFECTION ASSAY - IC50): 3.64 µM
16 | O=C(COC(=O)c1ccccc1NCCO)NC1c2ccccc2-c2ccccc21 |  | 4.07 µM | IC50 (FFLUC_HILL_SLOPE 129, FFLUC_R_SQUARED 0.809, HEPG2TOX_HILL_SLOPE 1.96, HEPG2TOX_R_SQUARED 0.833, PBLUC_HILL_SLOPE 15.2, PBLUC_R_SQUARED 0.28, read-out: LUCIFERASE INFECTION ASSAY - IC50): 3.52 µM

Row | Structure (SMILES) | IC50 [1] | IC90 | further results
17 | COc1ccc(C(N)c2csc(NC(=O)Nc3cccc(C#N)c3)n2)cc1 (centres undefined) |  | 3.43 µM | IC50 (PBLUC_HILL_SLOPE 15.3, PBLUC_R_SQUARED 0.483, read-out: LUCIFERASE INFECTION ASSAY - IC50): 2.97 µM
18 | Cc1c(C(=O)OCc2ccc(C(C)C)cc2)sc2nc3n(c(=O)c12)CCC3 |  | > 10 µM | IC50 (PBLUC_HILL_SLOPE 5.57, PBLUC_R_SQUARED 0.253, read-out: LUCIFERASE INFECTION ASSAY - IC50): 6.97 µM
19 | CCCCCCCCNC(=O)/C(C#N)=C/c1ccc(C)cc1C | > 10 µM | > 10 µM | 
20 | O=C(CN1CCN(Cc2cc(=O)oc3cc4c(cc23)CCC4)CC1)Nc1ccc(Cl)c(C(F)(F)F)c1 |  | > 10 µM | IC50 (PBLUC_HILL_SLOPE 2.35, PBLUC_R_SQUARED 0.537, read-out: LUCIFERASE INFECTION ASSAY - IC50): 5.82 µM
21 | COc1ccc2c(C)cc(SCc3nc(=O)c4c(-c5ccc(Cl)cc5)csc4[nH]3)nc2c1 | > 10 µM | > 10 µM | 
22 | Cc1[nH]c2ccccc2c1C(c1ccccc1)N1CCN(C)CC1 (centres undefined) | > 10 µM | > 10 µM | 
23 | CSCc1nc(=O)c2c(C)c(C(=O)NN3C(=O)NC(C)(c4ccccc4)C3=O)sc2[nH]1 (centres undefined) | > 10 µM | > 10 µM | 
24 | O=S(=O)(Nc1ccc(C(F)(F)F)cc1Cl)c1cc(C(F)(F)F)ccc1OCC(F)(F)F |  | 3.28 µM | IC50 (HEPG2TOX_HILL_SLOPE 1.76, HEPG2TOX_R_SQUARED 0.989, PBLUC_HILL_SLOPE 2.99, PBLUC_R_SQUARED 0.37, read-out: LUCIFERASE INFECTION ASSAY - IC50): 1.57 µM
25 | CCCc1ccc(C(NC(=O)Cn2ccc(=O)[nH]c2=O)c2cccs2)cc1 (centres undefined) | > 10 µM | > 10 µM | 
26 | COc1ccc(/C=C2\N=C(SCc3cn4ccsc4n3)N(c3cc(C)cc(C)c3)C2=O)cc1 |  | > 10 µM | IC50 (HEPG2TOX_HILL_SLOPE 2.87, HEPG2TOX_R_SQUARED 0.677, PBLUC_HILL_SLOPE 15.6, PBLUC_R_SQUARED 0.508, read-out: LUCIFERASE INFECTION ASSAY - IC50): 9.65 µM
27 | Cn1c(N)c(C(=O)COC(=O)c2ccccc2-c2nc3ccccc3s2)c(=O)n(C)c1=O |  | > 10 µM | IC50 (PBLUC_HILL_SLOPE 14.7, PBLUC_R_SQUARED 0.767, read-out: LUCIFERASE INFECTION ASSAY - IC50): 9.26 µM
28 | Cc1cccc2c(=O)n(CC(=O)NCc3ccc(C(=O)N4CCCCC4)cc3)cnc12 |  | 3.14 µM | IC50 (HEPG2TOX_HILL_SLOPE 1.92, HEPG2TOX_R_SQUARED 0.972, PBLUC_HILL_SLOPE 11.2, PBLUC_R_SQUARED 0.559, read-out: LUCIFERASE INFECTION ASSAY - IC50): 2.58 µM
29 | COc1ccc(Br)cc1/C=C/c1ccc2c([N+](=O)[O-])cccc2n1 | > 10 µM | > 10 µM | 
30 | CCOC(=O)c1cnc2c([N+](=O)[O-])cccc2c1O |  | 4 µM | IC50 (PBLUC_HILL_SLOPE 2.74, PBLUC_R_SQUARED 0.626, read-out: LUCIFERASE INFECTION ASSAY - IC50): 1.79 µM
31 | CCNC(=O)NC(=O)C(C)OC(=O)c1c(C)c(CC)nc2ccccc12 (centres undefined) |  | > 10 µM | IC50 (HEPG2TOX_HILL_SLOPE 14.2, HEPG2TOX_R_SQUARED 0.666, PBLUC_HILL_SLOPE 0.849, PBLUC_R_SQUARED 0.474, read-out: LUCIFERASE INFECTION ASSAY - IC50): 4.39 µM
32 | CSC(=NNc1ccc([N+](=O)[O-])cc1)NC(=O)c1c(Cl)cccc1Cl |  | > 8.27 µM | IC50 (PBLUC_HILL_SLOPE 1.5, PBLUC_R_SQUARED 0.194, read-out: LUCIFERASE INFECTION ASSAY - IC50): 7.91 µM
